Experimental data as given in US8846698B2, “Pyrrolo[2,3-d]pyrimidine tropomysin-related kinase inhibitors” (Pfizer Limited, priority 2011, dated 2014).
Where a name gives a salt, the structure may show the parent alone.

Biological target: TRKA (Homo sapiens (Human), UniProt P04629)
Assay: Isolated TRK enzyme assay (HTRF KinEASE-TK), TRKA
Format: biochemical
Conditions: read-out: Trka enzyme (IC50)

TRKA, sequence (P04629 441-796): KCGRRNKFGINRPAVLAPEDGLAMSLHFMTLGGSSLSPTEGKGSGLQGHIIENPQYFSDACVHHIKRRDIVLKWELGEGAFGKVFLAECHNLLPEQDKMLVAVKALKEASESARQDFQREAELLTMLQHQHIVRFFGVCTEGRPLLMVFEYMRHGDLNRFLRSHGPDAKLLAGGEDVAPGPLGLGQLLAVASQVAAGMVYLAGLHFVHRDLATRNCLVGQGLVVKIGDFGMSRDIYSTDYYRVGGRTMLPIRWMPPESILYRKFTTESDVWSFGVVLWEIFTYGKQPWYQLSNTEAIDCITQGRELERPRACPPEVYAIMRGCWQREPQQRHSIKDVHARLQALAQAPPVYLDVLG

Compound	IC50 [nM]
Cc1cc2ncn(CC(=O)Nc3cncc(C(=O)c4cn(C(C)C)c5ncncc45)c3)c2cc1C [Example 160, 2-(5,6-dimethyl-1H-benzimidazol-1-yl)-N-{5-[(7-isopropyl-7H-pyrrolo[2,3-d]pyrimidin-5-yl)carbonyl]pyridin-3-yl}acetamide]	1080
Cn1cc(C(=O)c2cncc(NC(=O)Cc3ccc(NS(=O)(=O)C(F)(F)F)cc3)c2)c2cncnc21 [Example 331, N-{5-[(7-methyl-7H-pyrrolo[2,3-d]pyrimidin-5-yl)carbonyl]pyridin-3-yl}-2-(4-{[(trifluoromethyl)sulfonyl]amino}phenyl)acetamide]	9810
CC(C)n1cc(C(=O)c2cncc(NC(=O)C(CO)c3ccc(Cl)cc3)c2)c2cncnc21 (stereo not shown) [Example 521, 2-(4-Chloro-phenyl)-3-hydroxy-N-[5-(7-isopropyl-7H-pyrrolo[2,3-d]pyrimidine-5-carbonyl)-pyridin-3-yl]-propionamide]	92.7
CC(C)n1cc(C(=O)c2cncc(NC(=O)Cc3cccc(CN4CCC4)c3)c2)c2cncnc21 [Example 266, 2-[3-(azetidin-1-ylmethyl)phenyl]-N-{5-[(7-isopropyl-7H-pyrrolo[2,3-d]pyrimidin-5-yl)carbonyl]pyridin-3-yl}acetamide formate salt]	2950
CC(C)n1cc(C(=O)c2cncc(NC(=O)Cc3cccc(C(F)(F)F)c3)c2)c2cnc(N)nc21 [Example 245, N-{5-[(2-amino-7-isopropyl-7H-pyrrolo[2,3-d]pyrimidin-5-yl)carbonyl]pyridin-3-yl}-2-[3-(trifluoromethyl)phenyl]acetamide]	4.7
CC(C)n1cc(C(=O)c2cncc(NC(=O)c3ncn4c3CCC4)c2)c2cncnc21 [Example 403, 6,7-Dihydro-5H-pyrrolo[1,2-c]imidazole-1-carboxylic acid [5-(7-isopropyl-7H-pyrrolo[2,3-d]pyrimidine-5-carbonyl)-pyridin-3-yl]-amide]	1220
C[C@@H](CO)n1cc(C(=O)c2cncc(NC(=O)Cn3cc4ccccc4n3)c2)c2cncnc21 [Example 532, N-{5-[7-((S)-2-Hydroxy-1-methyl-ethyl)-7H-pyrrolo[2,3-d]pyrimidine-5-carbonyl]-pyridin-3-yl}-2-indazol-2-yl-acetamide]	11.1
Cn1cc(C(=O)c2cncc(NC(=O)Cc3ccc4c(c3)CCO4)c2)c2cncnc21 [Example 189, 2-(2,3-dihydro-1-benzofuran-5-yl)-N-{5-[(7-methyl-7H-pyrrolo[2,3-d]pyrimidin-5-yl)carbonyl]pyridin-3-yl}acetamide]	836
CC(C)n1cc(C(=O)c2cncc(NC(=O)c3cn4nc(Cl)ccc4n3)c2)c2cncnc21 [Example 515, 6-Chloro-imidazo[1,2-b]pyridazine-2-carboxylic acid [5-(7-isopropyl-7H-pyrrolo[2,3-d]pyrimidine-5-carbonyl)-pyridin-3-yl]-amide]	1140
O=C(Cc1ccc(C(F)(F)F)cc1)Nc1cncc(C(=O)c2cn(C3(CO)CC3)c3ncncc23)c1 [Example 524, N-{5-[7-(1-Hydroxymethyl-cyclopropyl)-7H-pyrrolo[2,3-d]pyrimidine-5-carbonyl]-pyridin-3-yl}-2-(4-trifluoromethyl-phenyl)-acetamide]	4.53
Cc1ccc2[nH]cc(CC(=O)Nc3cncc(C(=O)c4cn(C(C)C)c5ncncc45)c3)c2c1 [Example 141, N-{5-[(7-isopropyl-7H-pyrrolo[2,3-d]pyrimidin-5-yl)carbonyl]pyridin-3-yl}-2-(5-methyl-1H-indol-3-yl)acetamide]	59.5
CC(C)c1cn(CC(=O)Nc2cncc(C(=O)c3cn(C(C)(C)CO)c4ncncc34)c2)nn1 [Example 227, N-(5-{[7-(2-hydroxy-1,1-dimethylethyl)-7H-pyrrolo[2,3-d]pyrimidin-5-yl]carbonyl}pyridin-3-yl)-2-(4-isopropyl-1H-1,2,3-triazol-1-yl)acetamide]	12.5
CC(C)n1cc(C(=O)c2cncc(NC(=O)Cc3ccc4c(c3)CCO4)c2)c2cncnc21 [Example 92, 2-(2,3-dihydro-1-benzofuran-5-yl)-N-{5-[(7-isopropyl-7H-pyrrolo[2,3-d]pyrimidin-5-yl)carbonyl]pyridin-3-yl}acetamide]	41.5
CN(C(=O)Cc1ccc(Cl)cn1)c1cncc(C(=O)c2cn(C(C)(C)C)c3ncncc23)c1 [Example 543, N-[5-(7-tert-Butyl-7H-pyrrolo[2,3-d]pyrimidine-5-carbonyl)-pyridin-3-yl]-2-(5-chloro-pyridin-2-yl)-N-methyl-acetamide]	50
COCC(C)(C)n1cc(C(=O)c2cncc(NC(=O)Cc3ccc(Cl)cn3)c2)c2cncnc21 [Example 536, 2-(5-Chloro-pyridin-2-yl)-N-{5-[7-(2-methoxy-1,1-dimethyl-ethyl)-7H-pyrrolo[2,3-d]pyrimidine-5-carbonyl]-pyridin-3-yl}-acetamide]	1.57
O=C(Cn1ccc(C(F)(F)F)n1)Nc1cncc(C(=O)c2cn(C3(CO)COC3)c3ncncc23)c1 [Example 302, N-[5-({7-[3-(hydroxymethyl)oxetan-3-yl]-7H-pyrrolo[2,3-d]pyrimidin-5-yl}carbonyl)pyridin-3-yl]-2-[3-(trifluoromethyl)-1H-pyrazol-1-yl]acetamide]	156

Compound	IC50 [nM]
Cc1cccc(CCC(=O)Nc2cncc(C(=O)c3cn(C)c4ncncc34)c2)c1 [Example 321, 3-(3-methylphenyl)-N-{5-[(7-methyl-7H-pyrrolo[2,3-d]pyrimidin-5-yl)carbonyl]pyridin-3-yl}propanamide]	3100
CC(C)n1cc(C(=O)c2cncc(N(C)C(=O)Cc3ccc(Cl)cc3)c2)c2cncnc21 [Example 297, 2-(4-chlorophenyl)-N-{5-[(7-isopropyl-7H-pyrrolo[2,3-d]pyrimidin-5-yl)carbonyl]pyridin-3-yl}-N-methylacetamide]	299
Cn1cc(C(=O)c2cncc(NC(=O)COc3ccc(F)cc3)c2)c2cncnc21 [Example 334, 2-(4-fluorophenoxy)-N-{5-[(7-methyl-7H-pyrrolo[2,3-d]pyrimidin-5-yl)carbonyl]pyridin-3-yl}acetamide]	1550
CC(C)n1cc(C(=O)c2cncc(NC(=O)Cc3cc(-c4ccccc4)c[nH]3)c2)c2cncnc21 [Example 137, N-{5-[(7-isopropyl-7H-pyrrolo[2,3-d]pyrimidin-5-yl)carbonyl]pyridin-3-yl}-2-(4-phenyl-1H-pyrrol-2-yl)acetamide]	496
C[C@H](CO)n1cc(C(=O)c2cncc(NC(=O)Cc3cccc(S(C)(=O)=O)c3)c2)c2cncnc21 [Example 209, N-[5-({7-[(1R)-2-hydroxy-1-methylethyl]-7H-pyrrolo[2,3-d]pyrimidin-5-yl}carbonyl)pyridin-3-yl]-2-[3-(methylsulfonyl)phenyl]acetamide]	272
CC(C)n1cc(C(=O)c2cncc(NC(=O)c3cc4c(cn3)OCCO4)c2)c2cncnc21 [Example 510, 2,3-Dihydro-1,4-dioxino[2,3-c]pyridine-7-carboxylic acid [5-(7-isopropyl-7H-pyrrolo[2,3-d]pyrimidine-5-carbonyl)-pyridin-3-yl]-amide]	249
Cc1cc(C(F)(F)F)nn1CC(=O)Nc1cc(C(=O)c2cn(C(C)C)c3ncncc23)c[nH]c1=O [Example 587, 2-[5-methyl-3-(trifluoromethyl)-1H-pyrazol-1-yl]-N-(2-oxo-5-{[7-(propan-2-yl)-7H-pyrrolo[2,3-d]pyrimidin-5-yl]carbonyl}-1,2-dihydropyridin-3-yl)acetamide]	20.5
Cc1nc(C)c2ncn(CC(=O)Nc3cncc(C(=O)c4cn(C(C)C)c5ncncc45)c3)c2n1 [Example 122, 2-(2,6-dimethyl-9H-purin-9-yl)-N-{5-[(7-isopropyl-7H-pyrrolo[2,3-d]pyrimidin-5-yl)carbonyl]pyridin-3-yl}acetamide]	5840
N#Cc1ccc(CC(=O)Nc2cncc(C(=O)c3cn(C4(CO)CC4)c4ncncc34)c2)cc1 [Example 522, 2-(4-Cyano-phenyl)-N-{5-[7-(1-hydroxymethyl-cyclopropyl)-7H-pyrrolo[2,3-d]pyrimidine-5-carbonyl]-pyridin-3-yl}-acetamide]	43.7
CC(C)(CO)n1cc(C(=O)c2cncc(NC(=O)Cc3ccc(NS(C)(=O)=O)cc3)c2)c2cnc(N)nc21 [Example 564, N-{5-[2-Amino-7-(2-hydroxy-1,1-dimethyl-ethyl)-7H-pyrrolo[2,3-d]pyrimidine-5-carbonyl]-pyridin-3-yl}-2-(4-methanesulfonylamino-phenyl)-acetamide]	1.57
CC(C)(CO)n1cc(C(=O)c2cncc(NC(=O)Cn3cc4ccccc4n3)c2)c2cnc(N)nc21 [Example 553, N-{5-[2-Amino-7-(2-hydroxy-1,1-dimethyl-ethyl)-7H-pyrrolo[2,3-d]pyrimidine-5-carbonyl]-pyridin-3-yl}-2-indazol-2-yl-acetamide]	4.4
CC(C)n1cc(C(=O)c2cncc(NC(=O)[C@H](N)Cc3ccc(C(=O)c4ccccc4)cc3)c2)c2cncnc21 [Example 285, 4-benzoyl-N-{5-[(7-isopropyl-7H-pyrrolo[2,3-d]pyrimidin-5-yl)carbonyl]pyridin-3-yl}-D-phenylalaninamide]	7820
CCc1nn2cc(CC(=O)Nc3cncc(C(=O)c4cn(C(C)C)c5ncncc45)c3)nc2s1 [Example 367, 2-(2-Ethyl-imidazo[2,1-b]-1,3,4-thiadiazol-6-yl)-N-[5-(7-isopropyl-7H-pyrrolo[2,3-d]pyrimidine-5-carbonyl)-pyridin-3-yl]-acetamide]	5640
CCOc1ccc(CC(=O)Nc2cncc(C(=O)c3cn(C(C)(C)CO)c4nc(N)ncc34)c2)nc1 [Example 561, N-{5-[2-Amino-7-(2-hydroxy-1,1-dimethyl-ethyl)-7H-pyrrolo[2,3-d]pyrimidine-5-carbonyl]-pyridin-3-yl}-2-(5-ethoxy-pyridin-2-yl)-acetamide]	112
Cc1cc(C(F)(F)F)nn1CC(=O)Nc1cncc(C(=O)c2cn(C(C)C)c3ncncc23)c1 [Example 96, N-{5-[(7-isopropyl-7H-pyrrolo[2,3-d]pyrimidin-5-yl)carbonyl]pyridin-3-yl}-2-[5-methyl-3-(trifluoromethyl)-1H-pyrazol-1-yl]acetamide]	5.45
